tested on: HCV replicon cells; experiment: Cell-based HCV replicon assay (replicon RNA level by real time PCR, Taqman); details: Hepatitis C virus, 72 h, HCV replicon cells, replicon RNA level by real time PCR (Taqman), harvested on day 3; calculated EC90 reported as range class; read-out: EC90 (μM) range
Outline: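 Readout: ΔCT between NS5B replicon RNA and GAPDH by real-time RT-PCR in lysates harvested on day 3, fitted sigmoidally; EC50 at ΔCT=1, EC90 at ΔCT=3.2. Compounds tested at ten 2-fold dilutions from 25 μM to 1 μM start, 10% FBS, 0.5% DMSO.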

**Q.** For `Cc1nc(Nc2ccccc2)nc(N[C@@H]2C[C@H](CO)[C@@H](O)[C@H]2O)c1-c1nc2ccccc2s1` [Example 1007], which EC90 is on record?
**A.** 0.5 to 5 µM

**Q.** Which EC90 does the source give for `CCOCCNc1nc(C)c(-c2nc3cc(OC)ccc3s2)c(N[C@@H]2C[C@H](CO)[C@@H](O)[C@H]2O)n1` [Example 1008] here?
**A.** 0.5 to 5 µM

**Q.** `COCCNc1nc(C)c(-c2nc3cc(OC)ccc3s2)c(N[C@@H]2C[C@H](CO)[C@@H](O)[C@H]2O)n1` [Example 1009] was tested. Which EC90 did it give?
**A.** 0.5 to 5 µM

**Q.** `COc1ccc2sc(-c3c(C)nc(NCC(F)(F)F)nc3N[C@@H]3C[C@H](CO)[C@@H](O)[C@H]3O)nc2c1` [Example 1010] was tested. Which EC90 did it give?
**A.** 0.5 to 5 µM

**Q.** With `Cc1nc(NCC(=O)O)nc(N[C@@H]2C[C@H](CO)[C@@H](O)[C@H]2O)c1-c1nc2ccccc2s1` [Example 1011] as the compound, how does the EC90 read?
**A.** 0.5 to 5 µM

**Q.** How did the EC90 turn out when `Cc1nc(NCCC(=O)O)nc(N[C@@H]2C[C@H](CO)[C@@H](O)[C@H]2O)c1-c1nc2ccccc2s1` [Example 1012] was run?
**A.** > 5 µM

**Q.** `Cc1nc(Nc2nccs2)nc(N[C@@H]2C[C@H](CO)[C@@H](O)[C@H]2O)c1-c1nc2ccccc2s1` [Example 1013] was tested. Which EC90 did it give?
**A.** 0.5 to 5 µM

**Q.** `Cc1nc(NCC(C)(C)O)nc(N[C@@H]2C[C@H](CO)[C@@H](O)[C@H]2O)c1-c1nc2ccccc2s1` [Example 1014] was tested. Which EC90 did it give?
**A.** < 0.5 µM

**Q.** How did the EC90 turn out when `Cc1nc(NCC(F)(F)F)nc(N[C@@H]2C[C@H](CN3CCOCC3)[C@@H](O)[C@H]2O)c1-c1nc2ccccc2s1` [Example 1015] was run?
**A.** 0.5 to 5 µM

**Q.** Which EC90 does the source give for `Cc1nc(NCC(F)(F)F)nc(N[C@@H]2C[C@H](CN(C)C)[C@@H](O)[C@H]2O)c1-c1nc2ccccc2s1` [Example 1016] here?
**A.** 0.5 to 5 µM

**Q.** For `Cc1nc(NCC(F)(F)F)nc(N[C@@H]2C[C@H](CN3CCCC3)[C@@H](O)[C@H]2O)c1-c1nc2ccccc2s1` [Example 1017], which EC90 is on record?
**A.** 0.5 to 5 µM

**Q.** How did the EC90 turn out when `CCNC[C@H]1C[C@@H](Nc2nc(NCC(F)(F)F)nc(C)c2-c2nc3ccccc3s2)[C@H](O)[C@@H]1O` [Example 1018] was run?
**A.** 0.5 to 5 µM

**Q.** With `CCOCCNc1nc(C)c(-c2nc3ccccc3s2)c(N[C@@H]2C[C@H](C(F)F)[C@@H](O)[C@H]2O)n1` [Example 1019] as the compound, how does the EC90 read?
**A.** < 0.5 µM

**Q.** Which EC90 does the source give for `CCOCCCNc1nc(C)c(-c2nc3ccccc3s2)c(N[C@@H]2C[C@H](CO)[C@@H](O)[C@H]2O)n1` [Example 1041] here?
**A.** 0.5 to 5 µM

**Q.** How did the EC90 turn out when `Cc1nc(Nc2cccc(F)c2)nc(N[C@@H]2C[C@H](CO)[C@@H](O)[C@H]2O)c1-c1nc2ccccc2s1` [Example 1042] was run?
**A.** > 5 µM

**Q.** How did the EC90 turn out when `Cc1nc(Nc2ccccc2F)nc(N[C@@H]2C[C@H](CO)[C@@H](O)[C@H]2O)c1-c1nc2ccccc2s1` [Example 1043] was run?
**A.** > 5 µM

**Q.** Which EC90 does the source give for `Cc1nc(Nc2ccc(F)cc2)nc(N[C@@H]2C[C@H](CO)[C@@H](O)[C@H]2O)c1-c1nc2ccccc2s1` [Example 1044] here?
**A.** 0.5 to 5 µM

**Q.** For `Cc1ccc(Nc2nc(C)c(-c3nc4ccccc4s3)c(N[C@@H]3C[C@H](CO)[C@@H](O)[C@H]3O)n2)cc1` [Example 1045], which EC90 is on record?
**A.** > 5 µM

**Q.** `Cc1cccc(Nc2nc(C)c(-c3nc4ccccc4s3)c(N[C@@H]3C[C@H](CO)[C@@H](O)[C@H]3O)n2)c1` [Example 1046] was tested. Which EC90 did it give?
**A.** 0.5 to 5 µM

**Q.** With `Cc1ccccc1Nc1nc(C)c(-c2nc3ccccc3s2)c(N[C@@H]2C[C@H](CO)[C@@H](O)[C@H]2O)n1` [Example 1047] as the compound, how does the EC90 read?
**A.** 0.5 to 5 µM

**Q.** Which EC90 does the source give for `COCCCCNc1nc(C)c(-c2nc3ccccc3s2)c(N[C@@H]2C[C@H](CO)[C@@H](O)[C@H]2O)n1` [Example 1048] here?
**A.** < 0.5 µM

**Q.** For `COCCCCNc1nc(C)c(-c2nc3cnccc3s2)c(N[C@@H]2C[C@H](CO)[C@@H](O)[C@H]2O)n1` [Example 1050], which EC90 is on record?
**A.** < 0.5 µM

**Q.** `Cc1nc(Nc2ccncc2)nc(N[C@@H]2C[C@H](CO)[C@@H](O)[C@H]2O)c1-c1nc2ccccc2s1` [Example 1051] was tested. Which EC90 did it give?
**A.** 0.5 to 5 µM

**Q.** For `CCOCCCCNc1nc(C)c(-c2nc3ccccc3s2)c(N[C@@H]2C[C@H](CO)[C@@H](O)[C@H]2O)n1` [Example 1052], which EC90 is on record?
**A.** < 0.5 µM

**Q.** Which EC90 does the source give for `Cc1nc(Nc2ccc(F)cc2)nc(N[C@@H]2C[C@H](CO)[C@@H](O)[C@H]2O)c1-c1nc2cnccc2s1` [Example 1053] here?
**A.** < 0.5 µM

**Q.** `Cc1nc(NCC2CC2)nc(N[C@@H]2C[C@H](CO)[C@@H](O)[C@H]2O)c1-c1cc2cc(OCC(C)C)nc(C)c2o1` [Example 1054] was tested. Which EC90 did it give?
**A.** 0.5 to 5 µM
